Data as given in PubChem BioAssay (NCI).
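Interpolation was linear, between the two tested concentrations surrounding the appropriate level; five concentrations were tested over 48 hours in 96-well plates. GI50 = concentration required for 50% inhibition of growth. Definition used: TGI = concentration required for complete inhibition of growth.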

Experiments:
Assay in all cases: inhibition of tumour cell growth, NCI panel, 48 h
TK-10 renal = test system: TK-10 renal
OVCAR-5 ovarian = test system: OVCAR-5 ovarian
UACC-257 melanoma = test system: UACC-257 melanoma
NCI-H522 lung = test system: NCI-H522 lung
SW-620 colon = test system: SW-620 colon
UACC-62 melanoma = test system: UACC-62 melanoma
MOLT-4 leukemia = test system: MOLT-4 leukemia
NCI-H226 lung = test system: NCI-H226 lung
KM12 colon = test system: KM12 colon
U251 CNS = test system: U251 CNS
COLO 205 colon = test system: COLO 205 colon
MDA-MB-435 = test system: MDA-MB-435
OVCAR-4 ovarian = test system: OVCAR-4 ovarian
SF-268 CNS = test system: SF-268 CNS
ACHN renal = test system: ACHN renal
SR leukemia = test system: SR leukemia
CCRF-CEM leukemia = test system: CCRF-CEM leukemia
LOX IMVI melanoma = test system: LOX IMVI melanoma
PC-3 prostate = test system: PC-3 prostate
T-47D breast = test system: T-47D breast
SK-MEL-28 melanoma = test system: SK-MEL-28 melanoma
SF-539 CNS = test system: SF-539 CNS
NCI-H460 lung = test system: NCI-H460 lung
UO-31 renal = test system: UO-31 renal
SF-295 CNS = test system: SF-295 CNS
M14 melanoma = test system: M14 melanoma
K-562 leukemia = test system: K-562 leukemia
HOP-62 NSCLC = test system: HOP-62 NSCLC
HS 578T breast = test system: HS 578T breast

SMILES: CC1(C)N=C(N)N=C(N)N1c1ccc(CCCCc2ccccc2)c(Cl)c1
- GI50 (TK-10 renal): 72.1 nM
- TGI (TK-10 renal): 17500 nM
- GI50 (OVCAR-5 ovarian): 331 nM
- TGI (OVCAR-5 ovarian): 22400 nM
- GI50 (UACC-257 melanoma): 247 nM
- TGI (UACC-257 melanoma): 5260 nM
- GI50 (NCI-H522 lung): 50 nM
- TGI (NCI-H522 lung): 1830 nM
- GI50 (SW-620 colon): < 10 nM
- TGI (SW-620 colon): 5970 nM
- GI50 (UACC-62 melanoma): 50.5 nM
- TGI (UACC-62 melanoma): 2670 nM
- GI50 (MOLT-4 leukemia): 95 nM
- TGI (MOLT-4 leukemia): 11300 nM
- GI50 (NCI-H226 lung): 275 nM
- TGI (NCI-H226 lung): 24400 nM
- GI50 (KM12 colon): 59 nM
- TGI (KM12 colon): 1420 nM
- GI50 (U251 CNS): < 10 nM
- TGI (U251 CNS): 1830 nM
- GI50 (COLO 205 colon): 28.1 nM
- TGI (COLO 205 colon): 1680 nM
- GI50 (MDA-MB-435): 38 nM
- TGI (MDA-MB-435): 5910 nM
- GI50 (OVCAR-4 ovarian): 75.5 nM
- TGI (OVCAR-4 ovarian): 9660 nM
- GI50 (SF-268 CNS): 53.6 nM
- TGI (SF-268 CNS): 13700 nM
- GI50 (ACHN renal): 461 nM
- TGI (ACHN renal): 22100 nM
- GI50 (SR leukemia): 25.9 nM
- TGI (SR leukemia): 5810 nM
- GI50 (CCRF-CEM leukemia): 37.4 nM
- TGI (CCRF-CEM leukemia): 14200 nM
- GI50 (LOX IMVI melanoma): 13.1 nM
- TGI (LOX IMVI melanoma): 1520 nM
- GI50 (PC-3 prostate): < 17.2 nM
- TGI (PC-3 prostate): 6880 nM
- GI50 (T-47D breast): 499 nM
- TGI (T-47D breast): 12800 nM
- GI50 (SK-MEL-28 melanoma): 530 nM
- TGI (SK-MEL-28 melanoma): 13400 nM
- GI50 (SF-539 CNS): 121 nM
- TGI (SF-539 CNS): 5140 nM
- GI50 (NCI-H460 lung): < 12.9 nM
- TGI (NCI-H460 lung): 4040 nM
- GI50 (UO-31 renal): 4890 nM
- TGI (UO-31 renal): 25600 nM
- GI50 (SF-295 CNS): 45.7 nM
- TGI (SF-295 CNS): 14600 nM
- GI50 (M14 melanoma): 59.8 nM
- TGI (M14 melanoma): 8770 nM
- GI50 (K-562 leukemia): 25.6 nM
- TGI (K-562 leukemia): > 51200 nM
- GI50 (HOP-62 NSCLC): 67.2 nM
- TGI (HOP-62 NSCLC): 5460 nM
- GI50 (HS 578T breast): 4490 nM
